Laboratory results as given in patent US11884647B2, “Compounds and methods for targeting pathogenic blood vessels” (THE REGENTS OF THE UNIVERSITY OF CALIFORNIA, priority 2019, dated 2024).

What was measured:
[1] = test system: tumor endothelial cells (LL/2 lung cancer tumor); experiment: Lung LL2 ex vivo model of tumor angiogenesis; assay type: cell-based, mouse; conditions: for Cell death: drug treatment two days; for cytotoxicity at 40 µM / cytotoxicity at 20 µM: Mus musculus, Endothelial cell, 48 h, read-out: Cell death
Method in brief: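 Read-out is live/dead fluorescence imaging (fluorescein diacetate green, propidium iodide red, 10 min at 37° C) at 2×, taken e.g. 48 h after drug addition. Fragments of mouse LL2 tumor are cultured in Matrigel with endothelial growth medium, usually 4 days, until new endothelial cells grow out, then treated.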

[2] = test system: tumor endothelial cells (CT26.CL25 colon cancer tumor); experiment: Colon CT26 ex vivo model of tumor angiogenesis; assay type: cell-based; conditions: Mus musculus, CT26, 48 h, read-out: Cell death
Experimental: This example describes a procedure to prepare a primary tumor angiogenesis model for assessing the efficacy of anti-cancer candidate agents.
1. The day before the experiment, spray all necessary tools with 70% ethanol and sterilize them under UV light overnight, including blade, dissecting and micro-dissecting scissors and […]. Place 24-well dishes at 4° C. to pre-chill plates and thaw Matrigel 24 hours before tumor dissection.
2. Spray 70% ethanol on working bench. Prepare two sterile petri dishes with 10 mL sterile PBS. Steps 3 and 4 are for mouse tumor models. For fresh human tumor, directly go to step 5.
3. Euthanize the tumor-bearing mice. Spray 70% ethanol on the mouse and remove the tumor using sterilized dissecting tools (avoid the fur). Rinse the tumor in petri dish with sterile PBS to remove ethanol and fur. Transfer the tumor to a new petri dish with PBS for dissection. Place the dish on ice.
4. Using pre-chilled sterile pipet tips to seed regular Matrigel in 24 well plates on ice. Matrigel (30 μL) is dropped in the middle of each well without touching the edge of the well (avoid introducing bubbles if possible).
5. Cut the tumor in halves using the sterile blade. Identify and isolate healthy tumor tissue that is not necrotic and is within the tumor capsule. Cut the healthy tumor tissue into small pieces. For instance, a suitable size for the tumor tissue is 0.5 mm (H)×0.5 mm (L)×0.3 mm (D) with a total volume of 0.075 mm^3.
6. Gently transfer and embed each tumor piece in the Matrigel drop in the 24-well plate. Place the embedded piece in the bottom and middle of each Matrigel drop. Keep the plate on ice all the time.
7. After seeding the tumor pieces, plates are incubated in a 37° C. cell culture incubator without medium for 10 minutes in order for the Matrigel to solidify.
8. Endothelial Growth Medium (0.5 mL) is added to each well and incubated at 37° C. with 5% CO2. Wait until the new endothelial cells have grown out of the tumor or are larger than 3 mm in diameter until treatment. This usually takes 4 days for the LL2 Lewis lung cancer model and 7 days for the CT26 colon cancer model. For human tumor models, the growth time is typically 2-3 weeks, depending on the tumor type. Media is changed every 4 days during prolonged culture. Typically, when the tumor tissue grows to 2 mm in diameter, it is good for drug testing. A size of about 3 mm in diameter can make visualization easier.
9. When the assay is ready to be analyzed for cell death (e.g., 48 hours after drug addition), prepare the dye mixture by mixing 6 μL of green dye to stain live cells (5 mg/mL Fluorescein diacetate or FDA in DMSO) with 30 μL of red dye (2.5 mg/mL Propidium iodide or PI in PBS) to stain dead cells in an Eppendorf tube. The FDA dye needs to be stored frozen in a −20° C. freezer because it has a labile ester bond.
10. Add 1 μL of the dye mixture to each well of the 24-well dish. It is usually performed one 24-well dish at a time given the amount of time needed to take pictures (the green dye is not as stable in the cells in the long term).
11. Gently rock the dish a few times to mix the dye with the media in the wells and incubate the dish at 37° C. for 10 min (too long incubation can make the green signal too intense).
12. Wash each well with 0.5 mL of sterile PBS and then add 0.5 mL of phenol red free SFM to each well. Alternatively 0.5 mL of regular Endothelial Cell Growth Media can be added to each well if this well needs to be continuously maintained after the experiment.
13. Look through all wells on an inverted microscope using the 2× objective lens to observe morphological changes.
14. Taking pictures in the red and green channels would allow not only the recording of the result but also more accurate quantitation of the result. To take pictures for all the wells, first pick a well that has robust red and green signals. […]

For `COc1ccc(S(=O)(=O)c2cnc3ccc(OC(F)(F)F)cc3c2NCCO)cc1OC` [compound 69, 2-((3-((3,4-dimethoxyphenyl)sulfonyl)-6-(trifluoromethoxy)quinolin-4-yl)amino)ethan-1-ol], the “48 hrs (morphology observations after 48 hours)” value ([1]; Lung LL2 ex vivo, Conc. 40 μm, 48 hrs) was 0, the Cell death ([1]; Lung LL2 ex vivo, Conc. 40 μm) was 20% and the cytotoxicity at 40 µM [2] was 0%.

`COc1ccc(S(=O)(=O)c2cnc3ccc(OC(F)(F)F)cc3c2N2CCCC(O)C2)cc1OC` (stereo not shown) [compound 70, 1-(3-((3,4-dimethoxyphenyl)sulfonyl)-6-(trifluoromethoxy)quinolin-4-yl)piperidin-3-ol] gave a cytotoxicity at 40 µM [1] of 40% and a cytotoxicity at 40 µM [2] of 10%.

`CCCN(CCC)c1c(S(=O)(=O)c2ccc(OC)c(OC)c2)cnc2ccc(OC(F)(F)F)cc12` [compound 71, 3-((3,4-dimethoxyphenyl)sulfonyl)-N,N-dipropyl-6-(trifluoromethoxy)quinolin-4-amine] gave a cytotoxicity at 40 µM [1] of 10% and a cytotoxicity at 40 µM [2] of 0%.

`COc1ccc(S(=O)(=O)c2cnc3ccc(OC(F)(F)F)cc3c2N(CCO)CCO)cc1OC` [compound 72, 2,2′-((3-((3,4-dimethoxyphenyl)sulfonyl)-6-(trifluoromethoxy)quinolin-4-yl)azanediyl)bis(ethan-1-ol)] showed a cytotoxicity at 40 µM [1] of 20% and a cytotoxicity at 40 µM [2] of 0%.

With `CCCCN(CCCC)c1c(S(=O)(=O)c2ccc(OC)c(OC)c2)cnc2ccc(OC(F)(F)F)cc12` [compound 74, N,N-dibutyl-3-((3,4-dimethoxyphenyl)sulfonyl)-6-(trifluoromethoxy)quinolin-4-amine] the cytotoxicity at 40 µM [1] was 60% and the cytotoxicity at 40 µM [2] was 100%.

Work on `CCc1ccc(S(=O)(=O)c2cnc3ccc([N+](=O)[O-])cc3c2N2CCC(O)CC2)cc1` [compound 75, 1-(3-((4-ethylphenyl)sulfonyl)-6-nitroquinolin-4-yl)piperidin-4-ol] yielded a cytotoxicity at 40 µM [1] of 80% and a cytotoxicity at 40 µM [2] of 0%.

`CCc1ccc(S(=O)(=O)c2cnc3ccc([N+](=O)[O-])cc3c2N2CCCN(C)CC2)cc1` [compound 76, 3-((4-ethylphenyl)sulfonyl)-4-(4-methyl-1,4-diazepan-1-yl)-6-nitroquinoline] showed a cytotoxicity at 40 µM [1] of 20% and a cytotoxicity at 40 µM [2] of 100%.

Work on `CCc1ccc(S(=O)(=O)c2cnc3ccc([N+](=O)[O-])cc3c2N2CCC(N3CCCCC3)CC2)cc1` [compound 77, 4-([1,4′-bipiperidin]-1′-yl)-3-((4-ethylphenyl)sulfonyl)-6-nitroquinoline] yielded a cytotoxicity at 40 µM [1] of 80% and a cytotoxicity at 40 µM [2] of 40%.

For `CCc1ccc(S(=O)(=O)c2cnc3ccc([N+](=O)[O-])cc3c2N(CC)CC)cc1` [compound 78, N,N-diethyl-3-((4-ethylphenyl)sulfonyl)-6-nitroquinolin-4-amine], the cytotoxicity at 40 µM [1] was 40% and the cytotoxicity at 40 µM [2] was 0%.

`CCc1ccc(S(=O)(=O)c2cnc3ccc(OC)cc3c2-n2cncn2)cc1` [compound 79, 3-((4-ethylphenyl)sulfonyl)-6-methoxy-4-(1H-1,2,4-triazol-1-yl)quinoline] was tested, and the cytotoxicity at 20 µM [1] was 20% and the cytotoxicity at 10 µM [2] was 100%.

Work on `CCOC(=O)c1ccc2ncc(S(=O)(=O)c3ccc(CC)cc3)c(-n3cncn3)c2c1` [compound 80, ethyl 3-((4-ethylphenyl)sulfonyl)-4-(1H-1,2,4-triazol-1-yl)quinoline-6-carboxylate] yielded a cytotoxicity at 20 µM [1] of 100% and a cytotoxicity at 10 µM [2] of 100%.

Work on `CCc1ccc(S(=O)(=O)c2cnc3ccc(OC(F)(F)F)cc3c2N(CC)CC)cc1` [compound 81, N,N-diethyl-3-((4-ethylphenyl)sulfonyl)-6-(trifluoromethoxy)quinolin-4-amine] yielded a cytotoxicity at 40 µM [1] of 0% and a cytotoxicity at 40 µM [2] of 0%.

For `CCc1ccc(S(=O)(=O)c2cnc3ccc(OC(F)(F)F)cc3c2N2CCCC(O)C2)cc1` (stereo not shown) [compound 82, 1-(3-((4-ethylphenyl)sulfonyl)-6-(trifluoromethoxy)quinolin-4-yl)piperidin-3-ol], the cytotoxicity at 40 µM [1] was 60% and the cytotoxicity at 40 µM [2] was 10%.

Work on `CCOC(=O)c1ccc2ncc(S(=O)(=O)c3ccc(CC)cc3)c(NN3CCN(C)CC3)c2c1` [compound 84, ethyl 3-((4-ethylphenyl)sulfonyl)-4-((4-methylpiperazin-1-yl)amino)quinoline-6-carboxylate] yielded a cytotoxicity at 40 µM [1] of 100% and a cytotoxicity at 40 µM [2] of 100%.

With `COc1ccc(S(=O)(=O)c2cnc3ccc(OC(F)(F)F)cc3c2NN2CCN(C)CC2)cc1` [compound 85, 3-((4-methoxyphenyl)sulfonyl)-N-(4-methylpiperazin-1-yl)-6-(trifluoromethoxy)quinolin-4-amine] the cytotoxicity at 40 µM [1] was 80% and the cytotoxicity at 40 µM [2] was 50%.

With `COc1ccc(S(=O)(=O)c2cnc3ccc(OC(F)(F)F)cc3c2-n2cncn2)cc1` [compound 86, 3-((4-methoxyphenyl)sulfonyl)-4-(1H-1,2,4-triazol-1-yl)-6-(trifluoromethoxy)quinoline] the cytotoxicity at 20 µM [1] was 100% and the cytotoxicity at 10 µM [2] was 100%.

Work on `CCCCN(CCCC)c1c(S(=O)(=O)c2ccc(CC)cc2)cnc2ccc(OC(F)(F)F)cc12` [compound 87, N,N-dibutyl-3-((4-ethylphenyl)sulfonyl)-6-(trifluoromethoxy)quinolin-4-amine] yielded a cytotoxicity at 40 µM [1] of 0% and a cytotoxicity at 40 µM [2] of 0%.

Work on `COc1ccc(S(=O)(=O)c2cnc3ccc(OC(F)(F)F)cc3c2NN2CCN(C)CC2)cc1OC` [compound 88, 3-((3,4-dimethoxyphenyl)sulfonyl)-N-(4-methylpiperazin-1-yl)-6-(trifluoromethoxy)quinolin-4-amine] yielded a cytotoxicity at 40 µM [1] of 70% and a cytotoxicity at 40 µM [2] of 60%.

`COc1ccc(S(=O)(=O)c2cnc3ccc(OC(F)(F)F)cc3c2-n2cncn2)cc1OC` [compound 89, 3-((3,4-dimethoxyphenyl)sulfonyl)-4-(1H-1,2,4-triazol-1-yl)-6-(trifluoromethoxy)quinoline] showed a cytotoxicity at 20 µM [1] of 100% and a cytotoxicity at 10 µM [2] of 100%.

In the case of `CN1CCN(Nc2c(S(=O)(=O)c3ccc(OC(F)(F)F)cc3)cnc3ccc(OC(F)(F)F)cc23)CC1` [compound 90, N-(4-methylpiperazin-1-yl)-6-(trifluoromethoxy)-3-((4-(trifluoromethoxy)phenyl)sulfonyl)quinolin-4-amine], the Cell death ([1]; Lung LL2 ex vivo, Conc. 40 μm) is reported as 10% and the cytotoxicity at 40 µM [2] is reported as 0%.

Work on `O=S(=O)(c1ccc(OC(F)(F)F)cc1)c1cnc2ccc(OC(F)(F)F)cc2c1-n1cncn1` [compound 91, 4-(1H-1,2,4-triazol-1-yl)-6-(trifluoromethoxy)-3-((4-(trifluoromethoxy)phenyl)sulfonyl)quinoline] yielded a Cell death ([1]; Lung LL2 ex vivo, Conc. 20 μm) of 80% and a cytotoxicity at 10 µM [2] of 100%.

In the case of `CCCCOc1ccc(S(=O)(=O)c2cnc3ccc(OC(F)(F)F)cc3c2NN2CCN(C)CC2)cc1` [compound 92, 3-((4-butoxyphenyl)sulfonyl)-N-(4-methylpiperazin-1-yl)-6-(trifluoromethoxy)quinolin-4-amine], the cytotoxicity at 20 µM [1] is reported as 10% and the cytotoxicity at 40 µM [2] is reported as 0%.

With `CCCCOc1ccc(S(=O)(=O)c2cnc3ccc(OC(F)(F)F)cc3c2-n2cncn2)cc1` [compound 93, 3-((4-butoxyphenyl)sulfonyl)-4-(1H-1,2,4-triazol-1-yl)-6-(trifluoromethoxy)quinoline] the cytotoxicity at 20 µM [1] was 100% and the cytotoxicity at 10 µM [2] was 100%.

In the case of `COc1ccc(S(=O)(=O)c2cnc3ccc([N+](=O)[O-])cc3c2NN2CCN(C)CC2)cc1` [compound 94, 3-((4-methoxyphenyl)sulfonyl)-N-(4-methylpiperazin-1-yl)-6-nitroquinolin-4-amine], the cytotoxicity at 40 µM [1] is reported as 20% and the cytotoxicity at 40 µM [2] is reported as 0%.
